From US9376425B2, “Heterocyclic compounds as MDM2 inhibitors for the treatment of cancer” (AMGEN INC., priority 2011, dated 2016)
pIC50: −log10 of the molar value.

Molecular target: T1, human MDM2 (GST-hMDM2 1-188), interaction with biotinylated-p53 (1-83) (Homo sapiens, UniProt Q00987)
T1 construct: Amino acid residues 1-188 of human MDM2 were expressed; made in house; host or cells: Escherichia coli
Assay: improved HTRF assay (HTRF2 assay), inhibition of HDM2-p53 interaction
Type: binding
Conditions: 0.2 nM GST-hMDM2, 0.5 nM biotinylated-p53, 100 mM KF
Procedure, shortened: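 Time-resolved fluorescence (HTRF) read after >4 h equilibration with SA-XLent/anti-GST cryptate/KF detection reagents. Reaction: compound plus GST-hMDM2 for 20 min at room temperature, then E. coli-expressed biotinylated p53 residues 1-83 for 60 min, 2% DMSO final. Inhibition expressed versus nutlin-3.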

T1 sequence (Q00987 1-188): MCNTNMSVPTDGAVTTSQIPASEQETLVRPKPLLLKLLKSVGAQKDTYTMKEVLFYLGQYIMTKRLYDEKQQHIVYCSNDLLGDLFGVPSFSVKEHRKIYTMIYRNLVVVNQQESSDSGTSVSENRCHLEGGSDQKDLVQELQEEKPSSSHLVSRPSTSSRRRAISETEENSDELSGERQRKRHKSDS

Q: `O=C(O)C[C@H]1O[C@H](c2cccc(Cl)c2)[C@@H](c2ccc(Cl)cc2)N([C@H](CN(c2ccccc2F)S(=O)(=O)C2CC2)CC(F)(F)F)C1=O` (single isomer, unassigned) [Example 277] was tested. Which pIC50 did it give?
A: 6.97

Q: `O=C(O)C[C@H]1O[C@H](c2cccc(Cl)c2)[C@@H](c2ccc(Cl)cc2)N([C@H](CN(c2ccccc2F)S(=O)(=O)C2CC2)CC(F)(F)F)C1=O` (single isomer, unassigned) [Example 278] was tested. Which pIC50 did it give?
A: 7.08

Q: How did the pIC50 turn out when `O=C(O)C[C@H]1O[C@H](c2cccc(Cl)c2)[C@@H](c2ccc(Cl)cc2)N([C@H](CN(c2ccccc2F)S(=O)(=O)C2CC2)CC(F)(F)F)C1=O` (single isomer, unassigned) [Example 279] was run?
A: 7.41

Q: How did the pIC50 turn out when `CC[C@@H](CS(=O)(=O)[C@H](C)C(C)C)N1C(=O)[C@H](CC(=O)O)O[C@H](c2cccc(Cl)c2)[C@H]1c1ccc(Cl)cc1` (single isomer, unassigned) [Example 282] was run?
A: 8.70

Q: `CC[C@@H](CS(=O)(=O)[C@H](C)C(C)C)N1C(=O)[C@H](CC(=O)O)O[C@H](c2cccc(Cl)c2)[C@H]1c1ccc(Cl)cc1` (single isomer, unassigned) [Example 283] was tested. Which pIC50 did it give?
A: 8.52

Q: `CC[C@@H](CS(=O)(=O)[C@H](C)C(C)C)N1C(=O)[C@H](CC(=O)O)O[C@H](c2cccc(Cl)c2)[C@H]1c1ccc(Cl)cc1` (single isomer, unassigned) [Example 284] was tested. Which pIC50 did it give?
A: 8.30

Q: How did the pIC50 turn out when `CC[C@@H](CS(=O)(=O)[C@H](C)C(C)C)N1C(=O)[C@H](CC(=O)O)O[C@H](c2cccc(Cl)c2)[C@H]1c1ccc(Cl)cc1` (single isomer, unassigned) [Example 285] was run?
A: 8.05

Q: `O=C(O)C[C@H]1O[C@H](c2cccc(Cl)c2)[C@@H](c2ccc(Cl)cc2)N([C@H](CS(=O)(=O)c2ccncc2)C2CC2)C1=O` (single isomer, unassigned) [Example 286, 2-((2R,5R,6R)-6-(3-Chlorophenyl)-5-(4-chlorophenyl)-4-((S)-1-cyclopropyl-2-(pyridin-4-ylsulfonyl)ethyl)-3-oxomorpholin-2-yl)acetic acid or 2-((2S,5R,6R)-6-(3-chlorophenyl)-5-(4-chlorophenyl)-4-((S)-1-cyclopropyl-2-(pyridin-4-ylsulfonyl)ethyl)-3-oxomorpholin-2-yl)acetic acid] was tested. Which pIC50 did it give?
A: 8.70

Q: How did the pIC50 turn out when `O=C(O)C[C@H]1O[C@H](c2cccc(Cl)c2)[C@@H](c2ccc(Cl)cc2)N([C@H](CS(=O)(=O)c2ccncc2)C2CC2)C1=O` (single isomer, unassigned) [Example 287, 2-((2R,5R,6R)-6-(3-Chlorophenyl)-5-(4-chlorophenyl)-4-((S)-1-cyclopropyl-2-(pyridin-4-ylsulfonyl)ethyl)-3-oxomorpholin-2-yl)acetic acid or 2-((2S,5R,6R)-6-(3-chlorophenyl)-5-(4-chlorophenyl)-4-((S)-1-cyclopropyl-2-(pyridin-4-ylsulfonyl)ethyl)-3-oxomorpholin-2-yl)acetic acid] was run?
A: 8.30

Q: How did the pIC50 turn out when `CC(C)(O)CS(=O)(=O)C[C@H](C1CC1)N1C(=O)[C@@H](CC(=O)O)O[C@H](c2cccc(Cl)c2)[C@H]1c1ccc(Cl)cc1` (single isomer, unassigned) [Example 288, 2-((2R,5R,6R)-6-(3-Chlorophenyl)-5-(4-chlorophenyl)-4-((S)-1-cyclopropyl-2-((2-hydroxy-2-methylpropyl)sulfonyl)ethyl)-3-oxomorpholin-2-yl)acetic acid or 2-((2S,5R,6R)-6-(3-chlorophenyl)-5-(4-chlorophenyl)-4-((S)-1-cyclopropyl-2-((2-hydroxy-2-methylpropyl)sulfonyl)ethyl)-3-oxomorpholin-2-yl)acetic acid] was run?
A: > 9.00

Q: `CC(C)(O)CS(=O)(=O)C[C@H](C1CC1)N1C(=O)[C@@H](CC(=O)O)O[C@H](c2cccc(Cl)c2)[C@H]1c1ccc(Cl)cc1` (single isomer, unassigned) [Example 289, 2-((2R,5R,6R)-6-(3-Chlorophenyl)-5-(4-chlorophenyl)-4-((S)-1-cyclopropyl-2-((2-hydroxy-2-methylpropyl)sulfonyl)ethyl)-3-oxomorpholin-2-yl)acetic acid or 2-((2S,5R,6R)-6-(3-chlorophenyl)-5-(4-chlorophenyl)-4-((S)-1-cyclopropyl-2-((2-hydroxy-2-methylpropyl)sulfonyl)ethyl)-3-oxomorpholin-2-yl)acetic acid] was tested. Which pIC50 did it give?
A: 8.70

Q: `CC(C)(C#N)S(=O)(=O)C[C@H](C1CC1)N1C(=O)[C@@H](CC(=O)O)O[C@H](c2cccc(Cl)c2)[C@H]1c1ccc(Cl)cc1` (single isomer, unassigned) [Example 290, 2-((2R,5R,6R)-6-(3-Chlorophenyl)-5-(4-chlorophenyl)-4-((S)-2-((2-cyanopropan-2-yl)sulfonyl)-1-cyclopropylethyl)-3-oxomorpholin-2-yl)acetic acid or 2-((2S,5R,6R)-6-(3-chlorophenyl)-5-(4-chlorophenyl)-4-((S)-2-((2-cyanopropan-2-yl)sulfonyl)-1-cyclopropylethyl)-3-oxomorpholin-2-yl)acetic acid] was tested. Which pIC50 did it give?
A: > 9.00

Q: `CC(C)(C#N)S(=O)(=O)C[C@H](C1CC1)N1C(=O)[C@@H](CC(=O)O)O[C@H](c2cccc(Cl)c2)[C@H]1c1ccc(Cl)cc1` (single isomer, unassigned) [Example 291, 2-((2R,5R,6R)-6-(3-Chlorophenyl)-5-(4-chlorophenyl)-4-((S)-2-((2-cyanopropan-2-yl)sulfonyl)-1-cyclopropylethyl)-3-oxomorpholin-2-yl)acetic acid or 2-((2S,5R,6R)-6-(3-chlorophenyl)-5-(4-chlorophenyl)-4-((S)-2-((2-cyanopropan-2-yl)sulfonyl)-1-cyclopropylethyl)-3-oxomorpholin-2-yl)acetic acid] was tested. Which pIC50 did it give?
A: > 9.00

Q: With `CC(C)(C)NS(=O)(=O)C[C@H](C1CC1)N1C(=O)[C@@H](CC(=O)O)O[C@H](c2cccc(Cl)c2)[C@H]1c1ccc(Cl)cc1` (single isomer, unassigned) [Example 292, 2-((2R,5R,6R)-4-((S)-2-(N-(tert-Butyl)sulfamoyl)-1-cyclopropylethyl)-6-(3-chlorophenyl)-5-(4-chlorophenyl)-3-oxomorpholin-2-yl)acetic acid or 2-((2S,5R,6R)-4-((S)-2-(N-(tert-butyl)sulfamoyl)-1-cyclopropylethyl)-6-(3-chlorophenyl)-5-(4-chlorophenyl)-3-oxomorpholin-2-yl)acetic acid] as the molecule, how does the pIC50 read?
A: > 9.00

Q: How did the pIC50 turn out when `CC(C)(C)NS(=O)(=O)C[C@H](C1CC1)N1C(=O)[C@@H](CC(=O)O)O[C@H](c2cccc(Cl)c2)[C@H]1c1ccc(Cl)cc1` (single isomer, unassigned) [Example 293, 2-((2R,5R,6R)-4-((S)-2-(N-(tert-Butyl)sulfamoyl)-1-cyclopropylethyl)-6-(3-chlorophenyl)-5-(4-chlorophenyl)-3-oxomorpholin-2-yl)acetic acid or 2-((2S,5R,6R)-4-((S)-2-(N-(tert-butyl)sulfamoyl)-1-cyclopropylethyl)-6-(3-chlorophenyl)-5-(4-chlorophenyl)-3-oxomorpholin-2-yl)acetic acid] was run?
A: 9.00
